Data published in article PMC11279629, “Identification of Dihydropyrazolo[1,5-a]pyrazin-4(5H)-ones as Cyclic Products of β-Amidomethyl Vinyl Sulfone Alphavirus Cysteine Protease Inhibitors” (Pharmaceuticals, 2024).
Where a name gives a salt, the structure may show the parent alone. Read-outs that look alike come from different tables or passages of the source.

Assays:
GSH capture assay = assay type: physicochemical; details: GSH (100×), phosphate buffer pH 7.4, 30 °C
[1] = Pharmacokinetics in mice, 10 mg/kg i.v.; assay type: in vivo, Male CD1 mice; details: for half-life: plasma, 10 mg/kg
Method: Although vinyl sulfones have been used as covalent warheads for inhibition of a wide range of cysteine proteases, there are relatively few reports of their use in vivo [14].
Blood samples were centrifuged at 4000× g for 5 min at 4 °C to obtain plasma. The plasma samples from each time point were pooled and then analyzed by LCMS/MS. The PK parameters were estimated by a non-compartmental model using WinNonlin 8.3.

[2] = Storage stability as solid or 10 mM DMSO stock solution
VEEV = details: read-out: VEEV EC50 (alphavirus replication); cited from earlier work
VEEV nsP2 protease = details: cited from earlier work

CS(=O)(=O)CC1CNC(=O)c2cc(NS(=O)(=O)c3ccccc3)nn21 (stereo not shown) (as salt: TFA) [Compound 8, N-(7-((methylsulfonyl)methyl)-4-oxo-4,5,6,7-tetrahydropyrazolo[1,5-a]pyrazin-2-yl)benzenesulfonamide]
melting point: 222 °C

CCOc1ccccc1-c1cc2n(n1)C(CS(C)(=O)=O)CNC2=O (stereo not shown) [Compound 2, 2-(2-ethoxyphenyl)-7-((methylsulfonyl)methyl)-6,7-dihydropyrazolo[1,5-a]pyrazin-4(5H)-one]
GSH-Adduct Formation (%) (GSH capture assay; 8 h): 0% | Plasma exposure relative to 1 [1]: 4 fold | AUC(0-t) ([1]; male, CD1, mouse, iv, pooled plasma): 3800 ng·h/mL | half-life ([1]; male, CD1, mouse, iv, pooled plasma, read-out: T1/2 (converted)): 30.6 min | half-life ([1]; male, CD1, mouse, iv, read-out: i.v. half-life): ~30 min | Clobs ([1]; pooled plasma): 44 mL/min/kg | Vssobs ([1]; pooled plasma): 0.32 L/kg | Stability upon storage [2]: stable

CS(=O)(=O)CC1CNC(=O)c2cc(NS(=O)(=O)c3ccccc3)nn21 (stereo not shown) [Compound 8, N-(7-((methylsulfonyl)methyl)-4-oxo-4,5,6,7-tetrahydropyrazolo[1,5-a]pyrazin-2-yl)benzenesulfonamide]
GSH-Adduct Formation (%) (GSH capture assay; 8 h): 3% | GSH-Adduct Formation (%) (GSH capture assay; 24 h): 6%

C[C@@H]1CC(C)(C)Nc2c(C(=O)NC/C=C/S(C)(=O)=O)cccc21 [Compound #11]
EC50 (VEEV): 1400 nM | VEEV nsP2 protease activity inhibition (VEEV nsP2 protease): micromolar inhibitor
